Measured values from ChEMBL document CHEMBL1201862, “PubChem BioAssay data set” (2004).
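96-well plates; 48 h exposure; 5 concentrations. Endpoints by linear interpolation between flanking doses. Not reached: highest tested concentration assigned. Here, GI50 denotes the concentration required for 50% inhibition of growth.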 Activity calls are given as the source filed them. Rule as the data show it: active = GI50 up to about 1.1 µM and inactive = higher.

Tests used:
Experiment in all cases: DTP human tumour cell line panel, 48 h
OVCAR-5 = system: OVCAR-5
UO-31 = system: UO-31
SK-MEL-28 = system: SK-MEL-28
EKVX = system: EKVX
SNB-19 = system: SNB-19
OVCAR-8 = system: OVCAR-8
HCT-116 = system: HCT-116
MOLT-4 = system: MOLT-4
MDA-MB-231 = system: MDA-MB-231
IGROV-1 = system: IGROV-1
NCI-H460 = system: NCI-H460
OVCAR-3 = system: OVCAR-3
SK-OV-3 = system: SK-OV-3
Hs-578T = system: Hs-578T
UACC-62 = system: UACC-62
COLO 205 = system: COLO 205
NCI-H226 = system: NCI-H226

Compound | GI50 (OVCAR-5) | GI50 (UO-31) | GI50 (SK-MEL-28) | GI50 (EKVX) | GI50 (SNB-19) | GI50 (OVCAR-8) | GI50 (HCT-116) | GI50 (MOLT-4) | GI50 (MDA-MB-231) | GI50 (IGROV-1) | GI50 (NCI-H460) | GI50 (OVCAR-3) | GI50 (SK-OV-3) | GI50 (Hs-578T) | GI50 (UACC-62) | GI50 (COLO 205) | GI50 (NCI-H226)
CN(C)CCNC(=O)c1ccc(NCCCN(C)CCCNc2ccc3c(=O)n(CCN(C)C)c(=O)n4c5ccccc5c(=O)c2c34)c2c(O)c3ccccc3nc12 | 0.0192 µM (active) | < 0.01 µM (active) | 0.234 µM (active) | 0.16 µM (active) | < 0.01 µM (active) | < 0.01 µM (active) | < 0.01 µM (active) | < 0.01 µM (active) | < 0.027 µM (active) | < 0.01 µM (active) | < 0.01 µM (active) | < 0.011 µM (active) | < 0.01 µM (active) | 0.0285 µM (active) | 0.0678 µM (active) | < 0.0108 µM (active) | < 0.0214 µM (active)
CC(C)c1cc(CN(C)C)c(O)c(C(C)(C)C)c1 | > 100 µM (inactive) | 23.1 µM (inactive) | 28.1 µM (inactive) | 28.7 µM (inactive) | 23.6 µM (inactive) | 30.3 µM (inactive) | 36.9 µM (inactive) | 26.2 µM (inactive) | 36.2 µM (inactive) | 47.1 µM (inactive) | 17.3 µM (inactive) | 17.4 µM (inactive) | 98.9 µM (inactive) | 22.6 µM (inactive) | 54.1 µM (inactive) | 20.7 µM (inactive) | 21.5 µM (inactive)
Cn1c(=O)c2nc(CCCCc3nc4ccccc4[nH]3)[nH]c2n(C)c1=O | > 100 µM (inactive) | 35.4 µM (inactive) | > 100 µM (inactive) | > 100 µM (inactive) | > 100 µM (inactive) | > 100 µM (inactive) | > 100 µM (inactive) | > 100 µM (inactive) | > 100 µM (inactive) | > 100 µM (inactive) | > 100 µM (inactive) | > 100 µM (inactive) | > 100 µM (inactive) | 30.3 µM (inactive) | > 100 µM (inactive) | > 100 µM (inactive) | 78.3 µM (inactive)
CCOC(=O)c1sc2nc(SC)nc3c2c1N=CN3c1ccccc1Cl | > 100 µM (inactive) | > 100 µM (inactive) | > 100 µM (inactive) | 55.3 µM (inactive) | 29.4 µM (inactive) | 52.6 µM (inactive) | 40.9 µM (inactive) | 61.7 µM (inactive) | 30.9 µM (inactive) | 68.1 µM (inactive) | > 100 µM (inactive) | 32.6 µM (inactive) | 31.4 µM (inactive) | 5.58 µM (inactive) | 33 µM (inactive) | > 100 µM (inactive) | > 100 µM (inactive)
Cc1cn(CCCCOC(=O)NC(CCCNC(=N)N)C(=O)O)c(=O)[nH]c1=O (configuration not stated) | > 100 µM (inactive) | > 100 µM (inactive) | > 100 µM (inactive) | > 100 µM (inactive) | > 100 µM (inactive) | > 100 µM (inactive) | > 100 µM (inactive) | > 100 µM (inactive) | > 100 µM (inactive) | > 100 µM (inactive) | > 100 µM (inactive) | > 100 µM (inactive) | > 100 µM (inactive) | > 100 µM (inactive) | > 100 µM (inactive) | > 100 µM (inactive) | > 100 µM (inactive)
CC(C)OC(=O)c1ccc(CCc2cc(O)c(Br)cc2O)cc1 | 17.5 µM (inactive) | 5.52 µM (inactive) | 13.9 µM (inactive) | 15.3 µM (inactive) | 14.8 µM (inactive) | 13.9 µM (inactive) | 11.5 µM (inactive) | 7.94 µM (inactive) | 12 µM (inactive) | 9.2 µM (inactive) | 18.6 µM (inactive) | 8.11 µM (inactive) | 16.6 µM (inactive) | 14.6 µM (inactive) | 20.2 µM (inactive) | 15.2 µM (inactive) | 18.7 µM (inactive)
O=C(Nc1ccc2ncccc2c1)c1cc2c(cc1Cl)Sc1nccn1S2(=O)=O | 20.9 µM (inactive) | 18.2 µM (inactive) | 18.4 µM (inactive) | 19.1 µM (inactive) | 16.4 µM (inactive) | 16.5 µM (inactive) | 12.8 µM (inactive) | 18.4 µM (inactive) | 20.4 µM (inactive) | 12.6 µM (inactive) | 15.7 µM (inactive) | 21.7 µM (inactive) | 33.3 µM (inactive) | 31.2 µM (inactive) | 16.6 µM (inactive) | 18.7 µM (inactive) | 18.1 µM (inactive)
Brc1cccc(/C=C/CN2CCN(CCOC(c3ccccc3)c3ccccc3)CC2)c1 | 16.2 µM (inactive) | 13.1 µM (inactive) | 17.8 µM (inactive) | 17.5 µM (inactive) | 16.7 µM (inactive) | 16.1 µM (inactive) | 13.7 µM (inactive) | 8.47 µM (inactive) | 13.9 µM (inactive) | 15.9 µM (inactive) | 13.3 µM (inactive) | 15.4 µM (inactive) | 17.6 µM (inactive) | 22.1 µM (inactive) | 17.4 µM (inactive) | 14.2 µM (inactive) | 19 µM (inactive)
COC(=O)C1=C(OC(=O)/C(=C/c2ccc(Cl)cc2Cl)c2ccc(Cl)cc2Cl)C(C(=O)OC)[C@@]2(O)[C@@H](C(=O)OC)[C@H](C)C[C@@H]1[C@@H]2C(=O)OC (some centres not stated) | > 100 µM (inactive) | > 100 µM (inactive) | > 100 µM (inactive) | 47.8 µM (inactive) | > 100 µM (inactive) | 34.4 µM (inactive) | > 100 µM (inactive) | > 100 µM (inactive) | 40 µM (inactive) | > 100 µM (inactive) | > 100 µM (inactive) | > 100 µM (inactive) | > 100 µM (inactive) | > 100 µM (inactive) | 92.5 µM (inactive) | > 100 µM (inactive) | > 100 µM (inactive)
COc1cc(/C=[N+](\[O-])c2ccccc2Cl)ccc1OC(=S)S | > 100 µM (inactive) | 39.6 µM (inactive) | 35 µM (inactive) | 29.2 µM (inactive) | 55.1 µM (inactive) | 32.7 µM (inactive) | 32.5 µM (inactive) | 27 µM (inactive) | 53.3 µM (inactive) | 49.4 µM (inactive) | 27.2 µM (inactive) | 30.8 µM (inactive) | 43.9 µM (inactive) | 61.7 µM (inactive) | 21 µM (inactive) | 21.8 µM (inactive) | 57.4 µM (inactive)
CCC[C@H](C)[C@H]1NC(=O)[C@@H](NC(=O)[C@@H](CC(C)C)N(C)C(=O)C2CCCN2C(=O)[C@H](C)O)[C@@H](C)OC(=O)[C@H](CC(C)C)N(C)C(=O)[C@@H]2CCCN2C(=O)[C@H](CC(C)C)NC(=O)[C@@H](C)C(=O)[C@H](C(C)C)OC(=O)C[C@@H]1O (some centres not stated) | < 0.0025 µM (active) | 0.0107 µM (active) | < 0.0025 µM (active) | < 0.0025 µM (active) | < 0.0025 µM (active) | < 0.0025 µM (active) | < 0.0025 µM (active) | < 0.0025 µM (active) | < 0.0025 µM (active) | < 0.0025 µM (active) | < 0.0025 µM (active) | < 0.0025 µM (active) | < 0.0025 µM (active) | < 0.0025 µM (active) | < 0.0025 µM (active) | < 0.0025 µM (active) | < 0.0025 µM (active)
